We go through three compounds from patent publication US20100260673A1, “PHAGE DISPLAY PEPTIDE PROBES FOR IMAGING EARLY RESPONSES TO ANTIANGIOGENIC TREATMENT” (priority 2009, published 2010).

For data set [1] the following is noted: for metabolic stability in vivo: urine after 1 hr. The protocol:
Metabolic Stability of AVP Peptide: Nude mice bearing LS174T tumor xenografts were intravenously injected with 3.7 MBq of ^18F-FP-AVP. Urine samples were collected 1 h after tracer injection and analyzed by HPLC.
Radiochemistry: Semi-preparative reversed-phase high performance liquid chromatography (RPHPLC) using a Vydac protein and peptide column (218TP510; 5 μm, 250×10 mm) was performed on a Dionex 680 chromatography system with a UVD 170U absorbance detector and model 105S single-channel radiation detector (Carroll & Ramsey Associates). The recorded data were processed using Chromeleon version 6.50 software. With a flow rate of 5 ml/min, the mobile phase was changed from 95% solvent A [0.1% trifluoroacetic acid (TFA) in water] and 5% B [0.1% TFA in acetonitrile] (0-2 min) to 35% solvent A and 65% solvent B at 32 min. […] C18 Sep-Pak cartridges (Waters) were pretreated with ethanol and water before use.

For data set [2], the system named is LS174T tumor. The conditions noted are these: mouse, in vivo. The protocol: The 4T1 cells were harvested from the tumor and suspended in sterile PBS at a concentration of 2×10^7 viable cells/mL.
Tumor Growth Study: When palpable tumors (150-200 mm^3) were present in all animals, mice were randomly divided into two groups (n=10/group). Cancer therapy response was evaluated in LS174T human colorectal cancer, 4T1 murine breast cancer and 22B human head-neck cancer models. […] The mouse body weight and tumor volume were measured every 3 days for up to 20 days before euthanasia.
Small Animal PET Imaging: A detailed procedure for positron emission tomography (PET) imaging has been reported earlier (Li et al., (2008) J. Nucl. Med. 49: 453-461). Briefly, PET scans were performed using a microPET R4 rodent model scanner (Siemens Medical Solutions). […] The images were reconstructed by a two-dimensional ordered subsets expectation maximum (OSEM) algorithm with no attenuation or scatter correction. For each microPET scan, regions of interest (ROIs) were drawn over the tumor by using vendor software ASI Pro 5.2.4.0 on decay corrected whole-body coronal images. Assuming a tissue density of 1 g/ml, the ROIs were converted to MBq/g/min using a conversion factor, and then divided by the administered activity to obtain an imaging ROI-derived percent injected dose per gram (% ID/g).

For data set [3], the system named is LS174T human colorectal cancer. Briefly: Tumor growth study. It is filed as in vivo, mice.
Experimental: Animal Models: Female athymic nude mice (nu/nu) were obtained from Harlan (Indianapolis, Ind.) at 6-8 weeks of age and were kept under sterile conditions. The LS174T or 22B cells were harvested and suspended in sterile PBS at a concentration of 5×10^7 viable cells/ml. Viable tumor cells (5×10^6) in sterile PBS (100 μL) were injected subcutaneously into the right shoulder. […] Tumor growth was followed by caliper measurements of perpendicular measures of the tumor. The tumor volume was estimated by the formula: tumor volume=a×(b2)/2, where a and b were the tumor length and width respectively in mm.
Data set [4] deals with tumor that responds to the anti-angiogenic drug ZD4190 therapy. The settings on record: ZD4190-treated.
Text: Two-dimensional NIR fluorescence images were acquired at various time points after injection using a Maestro in vivo imaging system (CRI, Woburn, Mass.; IRdye800 excitation=735 nm, emission=780 nm long pass).
The test system of a further data set is 22B tumor. The conditions noted are these: Bevacizumab-treated mice, 4T1 and 22B in the same animal.
In data set [5] the test system is LS174T human colorectal cancer cells. The settings on record: 48 h incubation, various concentrations. The protocol:
(§1) Toxicity of AVP on Cell Viability by MTT Assay: MTT (3-(4,5-dimethylthiazolyl-2)-2,5-diphenyltetrazolium bromide; ATCC) assays were used to measure cell viability. Three thousand tumor cells or HUVECs were seeded per well in a 96-well plate and allowed to incubate for 24 h. After incubation with various concentrations of peptide AVP for 48 h, 10 μl of MTT reagent was added to each well. Four hours later, when the purple precipitate became visible, the supernatant was discarded, and 100 μl of DMSO was added to each well and the plate was shaken in the dark for 10 min at room temperature. The absorbance at 570 nm was then measured using a microplate reader (Tecan).

The test system of data set [6] is human umbilical vein endothelial cells (HUVEC). The settings on record: 48 h incubation, various concentrations. The protocol:
as §1

The test system of data set [7] is 4T1 murine breast cancer cells. The conditions noted are these: 4T1, 48 h incubation, various concentrations. The protocol: as §1
In a further data set the test system is 4T1 tumor. The settings on record: Bevacizumab-treated mice.
Data set [8] has as its system LS174T tumor. The settings on record: Bevacizumab-treated mice.

Where two headings read alike, the source gives them in different places. Where a SMILES comes first, the peptide text is derived from it. Where no end group is shown, it is not given here. The star is where a group is joined. Propanoyl(2-F) = CC(F)C(=O)*

Consider `CC(C)C[C@H](NC(=O)C(C)F)C(=O)N[C@@H](CC(C)C)C(=O)N[C@@H](C)C(=O)N[C@@H](CC(=O)O)C(=O)N[C@H](C(=O)N[C@H](C(=O)N[C@@H](Cc1c[nH]cn1)C(=O)N[C@@H](Cc1c[nH]cn1)C(=O)N[C@@H](CCCNC(=N)N)C(=O)N1CCC[C@H]1C(=O)N[C@@H](Cc1c[nH]c2ccccc12)C(=O)N[C@H](C(=O)O)[C@@H](C)O)[C@@H](C)O)[C@@H](C)O` (some centres unmarked) [18F-FP-AVP] ({Propanoyl(2-F)}-LLADTTHHRPWT-OH), for which the figures for the “metabolic stability in vivo” value in data set [1] and in data set [1] (listed as 18F-labeled Bevacizumab (AVASTIN™)-responsive peptide) were “good metabolic stability” and “minimal degradation or metabolism”, respectively. Also, the “intact tracer in urine” value in data set [1] (urine sample 1 h after i.v. injection, HPLC) is on record as “about 90%”. Further, in the data set on LS174T tumor [2], the “microPET tumor uptake, Avastin treated versus control PBS treated tumors” value is reported as “significantly higher uptake”.
With “Bevacizumab (AVASTIN™): recombinant humanized monoclonal IgG1 antibody that binds human VEGF”, the “additional time after imaging until statistically significant change in tumor volume versus saline control” value in data set [3] (LS174T and 22B tumor models, imaging on fifth day of treatment) lay within 5 to 6 days. Moreover, the “difference in tumor volume between treatment and control groups” value in data set [3] (fifth day following the start of treatment, 1 day after three doses) is “no difference”.
Turning to LLADTTHHRPWT [AVP], the “concentration in tumor responding to ZD4190 therapy” value in data set [4] is given as “concentrated”. For the same compound, the “concentration in 22B tumor” value with 22B tumor is reported as “is concentrated”. The “effect on cells (MTT)” value in [5], in data set [6] and in [7] was “little effect” in each case. Moreover, the “concentration in / binding to 4T1 tumor” value in the data set with 4T1 tumor (listed as AVP peptide) is on record as “no binding”; with 4T1 tumor (listed as Bevacizumab (AVASTIN™)-responsive peptide), “not concentrated”. Also, the “concentration in LS174T tumor” value in the data set with LS174T tumor [8] was “is concentrated”.
